The text below walks through data of patent US20120165340A1, “PTEN PHOSPHORYLATION-DRIVEN RESISTANCE TO CANCER TREATMENT AND ALTERED PATIENT PROGNOSIS” (Ludwing Institute for Cancer Research Ltd., priority 2009, published 2012).

One data set deals with Ink4a/Arf-/- astrocytes. Nature of the data set: Drug sensitivity assay, cell viability by WST-1. The data set is classed as cell-based, mouse. As to conditions: 72 hours. From the text:
Mouse Astrocytes. Ink4a/Arf^−/−1 and Pten^loxP/loxP 2 mice were obtained from the NCI mouse depository and intercrossed to generate described genotypes. Primary astrocytes were isolated from the neocortex of 4 day old pups, using standard astrocyte isolation culture conditions (Bachoo et al 2002). Conditional deletion of Pten^loxP/loxP was accomplished by infecting astrocyte cultures with adenovirus expressing Cre recombinase under the CMV promoter (Gene TransferVector Core, University of Iowa, Iowa City, Iowa). Effective Pten deletion was verified by western blot. EGFRvIII was expressed in these cells by retroviral infection as described previously (Bachoo et al 2002). (Reference: Bachoo, R. M. et al. Epidermal growth factor receptor and Ink4a/Arf: convergent mechanisms governing terminal differentiation and transformation along the neural stem cell to astrocyte axis. Cancer Cell 1, 269-77 (2002)).
Drug sensitivity assays. Cells were plated at 1000 cells/well in 96 well plates and allowed to adhere for four hours prior to addition of Erlotinib and/or Dasatinib or solvent (DMSO) control. Cells were maintained in 5% serum during drug treatments and cell viability was measured using WST-1 assay (Clontech) following 72 hours exposure to drug.
Statistical analysis. For quantitation and analysis of immunohistochemistry data, see above. For analysis of drug sensitivity data, 2-way ANOVA was performed using the KaleidaGraph program (Synergy Software).
A general note: Formazan colour is commonly taken as a measure of viable cells.

Another data set concerns GBM39 cells. Nature of the data set: PTEN Y240 phosphorylation in GBM39 glioma cells, western blot. The data set is classed as cell-based, human. As to conditions: pervanadate 100 μM for 15 minutes. On the procedure:
Mice were sacrificed by CO2 inhalation followed by cervical dislocation, according to institutional guidelines. Subcutaneous tumors were removed and tumor tissue was minced into 0.1-0.5 mm^3 chunks in a 60 mm dish with 5 ml of freshly prepared, filter-sterilized digestion solution (12,500 units of Collagenase Type 2, 12,500 units of Collagenase Type 4, 20 mL DMEM (Serum Free), 20 uL of 1 mg/mL DNAase I). Tissue was placed into a sterile 15 ml specimen cup with an additional 10 ml of digestion solution and shaken (150 rpm) at 37 C for 3 hours before filtration through a 70/40 um filter. After centrifugation at 1000 rpm for 3 minutes, the supernatant was discarded. The pellet was resuspended in 1 ml of ACK buffer (150 mM NH4Cl, 10 mM KHCO3, 0.1 mM Na2EDTA, adjusted to pH 7.2-7.4 with 1N HCl) and incubated at room temperature for 3 minutes to lyse red blood cells. Cells were pelleted by centrifugation at 1000 rpm for 3 minutes and resuspended in culture medium (DMEM containing 10% fetal bovine serum plus L-glutamine and penicillin/streptomycin). Cell viability was determined by trypan blue exclusion and cells were plated at a density of approx 10^6 cells per 100 mm culture dish. Cells were maintained under standard cell culture conditions (37 C, 5% CO2 in a humidified incubator) and all experiments were conducted in cells prior to p4. […]

For data set [1] the following is noted: in vivo; cited from earlier work.
In data set [2] the test system is Ph+ leukemia cells which express wt and mutated BCR-ABL. Conditions: mouse, in vivo; cited from earlier work.
The next data set concerns the target Lyn (Homo sapiens, UniProt P07948). As to conditions: cited from earlier work.
For the next data set, the system named is anti-pY240 PTEN antibody. As to the kind of experiment: Peptide competition of anti-pY240 immunostaining. The data set is classed as binding. Conditions: tissue sections from human GBM with wild type PTEN. From the text: Immunohistochemistry: Tissue sections were cut from blocks of formalin-fixed paraffin tumor tissue from glioblastoma patients treated at UCLA with the EGFR kinase inhibitors (erlotinib or gefitinib), including a subset of patients previously described^2. Tumor specimens were obtained according to a protocol approved by the institutional review board of UCLA. Pre-treatment tumor tissue was examined for 19 patients; post-treatment tissue was examined from 8 patients, including 7 patients for whom pre- and post-treatment tissue was available. […]

Non-standard residues stand in square brackets, D forms with d. No end group written: not given here. pY = N[C@@H](Cc1ccc(OP(=O)(O)O)cc1)C(=O)O

Sequence of Lyn (P07948 whole entry, species assumed): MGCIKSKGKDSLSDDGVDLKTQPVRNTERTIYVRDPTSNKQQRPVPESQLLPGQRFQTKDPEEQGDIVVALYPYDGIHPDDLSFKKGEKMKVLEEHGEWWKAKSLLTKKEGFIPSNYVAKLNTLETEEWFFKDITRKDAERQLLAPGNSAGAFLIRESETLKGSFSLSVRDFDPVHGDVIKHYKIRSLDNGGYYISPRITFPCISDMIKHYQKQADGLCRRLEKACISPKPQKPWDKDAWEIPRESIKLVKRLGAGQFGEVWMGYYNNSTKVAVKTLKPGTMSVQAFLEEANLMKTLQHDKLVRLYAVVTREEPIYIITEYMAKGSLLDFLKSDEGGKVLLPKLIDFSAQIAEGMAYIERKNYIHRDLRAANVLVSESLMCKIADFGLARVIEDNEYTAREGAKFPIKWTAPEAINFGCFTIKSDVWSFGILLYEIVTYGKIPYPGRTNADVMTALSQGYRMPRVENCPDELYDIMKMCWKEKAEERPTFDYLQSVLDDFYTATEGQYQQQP

Regarding `C#Cc1cccc(Nc2ncnc3cc(OCCOC)c(OCCOC)cc23)c1` [Erlotinib], the “sensitivity to Erlotinib (cell viability)” value in the data set on Ink4a/Arf-/- astrocytes (EGFRvIII PTEN-null astrocytes reconstituted with PTEN Y240F mutant) is on record as “significantly sensitized these cells to sub-micromolar doses”; in the data set on Ink4a/Arf-/- astrocytes (EGFRvIII astrocytes reconstituted with WT PTEN) it was “resistant to clinically achievable doses”; in the data set with Ink4a/Arf-/- astrocytes (PTEN-null astrocytes expressing EGFRvIII), “resistant to clinically achievable doses”; in the data set with Ink4a/Arf-/- astrocytes (astrocytes expressing WT PTEN, with versus without EGFRvIII) it was “sensitizes astrocytes expressing WT PTEN to Erlotinib”.

Take pervanadate: the “induction of Y240 phosphorylation” value in the data set on GBM39 cells is “substantial increase in Y240 phosphorylation”.

On to `Cc1ccc(NC(=O)c2ccc(CN3CC[C@H](N(C)C)C3)c(C(F)(F)F)c2)cc1Nc1nccc(-c2cncnc2)n1` [INNO-406], for which the “concentrations in the CNS relative to those in plasma” value in data set [1] is listed as “about 10%”. The “growth of Ph+ leukemia cells in murine CNS” value in data set [2] is reported as “does inhibit growth”. The “Lyn inhibition versus phosphorylation of Src, Blk or Yes” value on Lyn is “inhibits Lyn without affecting the phosphorylation of Src-family kinases Src, Blk or Yes”.

Consider “FMY[243.03]FEFPQPLPVC[160.03]GDIK: Phosphorylated PTEN Y240 peptide that competes away antibody staining (FM[pY]FEFPQPLPVCGDIK; not fully specified (residue 13); printed as FMY[243.03]FEFPQPLPVC[160.03]GDIK; also: modified cysteine C13 (C[160.03]))”, for which the “competition of antibody staining in immunostaining” value in the data set with anti-pY240 PTEN antibody was “competes away antibody staining”.
